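Five compound concentrations were applied to cells in 96-well plates for 48 hours; endpoints were derived by simple linear interpolation of the resulting dose-response curve. Abbreviation: GI50, concentration required for 50% inhibition of growth.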 Activity calls are given as the source filed them. No stated cut-off is given here; in the data, active = GI50 up to about 1.1 µM and inactive = higher.
What was measured:
Assay in all cases: growth of human tumour cells (NCI), 48 h
[1] = tested on: RPMI-8226
[2] = tested on: SNB-78
[3] = tested on: SK-OV-3
[4] = tested on: LOX IMVI
[5] = tested on: Malme-3M
[6] = tested on: SR
[7] = tested on: K562
[8] = tested on: M19-MEL
[9] = tested on: HCT-15
[10] = tested on: 786-0
[11] = tested on: KM12
[12] = tested on: A549
[13] = tested on: DMS-273
[14] = tested on: UACC-62
[15] = tested on: LXFL 529
[16] = tested on: SN12C
[17] = tested on: HOP-62
[18] = tested on: NCI-H23
[19] = tested on: UO-31
[20] = tested on: M14
[21] = tested on: HT-29
[22] = tested on: SNB-19
[23] = tested on: UACC-257
[24] = tested on: DLD-1
[25] = tested on: HCC 2998
[26] = tested on: U-251
[27] = tested on: EKVX
[28] = tested on: NCI-H460
[29] = tested on: SF-539
[30] = tested on: SW-620
[31] = tested on: CCRF-CEM
[32] = tested on: HL-60
[33] = tested on: IGROV-1
[34] = tested on: SK-MEL-28
[35] = tested on: MOLT-4
[36] = tested on: COLO 205
[37] = tested on: OVCAR-8
[38] = tested on: TK-10
[39] = tested on: NCI-H522
[40] = tested on: ACHN
[41] = tested on: PC-3
[42] = tested on: DU-145
[43] = tested on: SNB-75
[44] = tested on: Hs-578T
[45] = tested on: NCI-H226
[46] = tested on: BT-549
[47] = tested on: NCI/ADR-RES
[48] = tested on: OVCAR-3
[49] = tested on: SK-MEL-2
[50] = tested on: T47D
[51] = tested on: HOP-92
[52] = tested on: MDA-N
[53] = tested on: HCT-116
[54] = tested on: RXF 393
[55] = tested on: A498
[56] = tested on: MDA-MB-435
[57] = tested on: SF-268
[58] = tested on: OVCAR-5
[59] = tested on: MCF7
[60] = tested on: MDA-MB-231
[61] = tested on: CAKI-1
[62] = tested on: SK-MEL-5
[63] = tested on: SF-295
[64] = tested on: OVCAR-4
[65] = tested on: KM-20L2

Measured: GI50

CN(C)c1cccc(-c2cc(O)c3ccccc3n2)c1
inactive: [1] 34.8 µM | [2] 82 µM | [3] 68.1 µM | [4] 71.4 µM | [5] 31.7 µM | [6] 45.5 µM | [7] > 10 µM | [8] 76.7 µM | [10] 49.7 µM | [11] 34.4 µM | [12] 57.3 µM | [13] 45.9 µM | [14] 42 µM | [15] 57.7 µM | [16] 47.8 µM | [17] 53.7 µM | [18] 54.8 µM | [19] 47.6 µM | [20] 43.3 µM | [21] 25.2 µM | [22] 39 µM | [23] 31.9 µM | [24] 26.8 µM | [25] 40.4 µM | [26] 55.8 µM | [27] > 100 µM | [28] 13.6 µM | [29] 30.4 µM | [30] 37 µM | [31] 41.7 µM | [32] 28.2 µM | [33] 80.9 µM | [34] 86.1 µM | [35] 61.5 µM | [36] 48.2 µM | [37] 75.9 µM | [38] > 100 µM | [39] 24.2 µM | [40] > 100 µM
44.4 µM: [9]

COC(=O)[C@@H]1C[C@H]([Se]c2ccccc2)CN1C(=O)OCc1ccccc1
inactive: [1] 24.8 µM | [3] > 100 µM | [41] 30.3 µM | [42] 47.2 µM | [4] 12.6 µM | [43] 63.4 µM | [44] 64.9 µM | [5] 26.2 µM | [6] 26.1 µM | [45] 32.7 µM | [7] 26.8 µM | [46] 22.9 µM | [47] 39.2 µM | [10] 41.7 µM | [48] 24 µM | [11] 30.8 µM | [12] 29.6 µM | [14] 15.1 µM | [16] 45.5 µM | [17] 98.6 µM | [18] 20.4 µM | [49] 19.5 µM | [50] 16 µM | [51] 33.7 µM | [19] 24.4 µM | [20] 29.8 µM | [21] 26 µM | [52] 19.2 µM | [22] 62.7 µM | [23] 31.4 µM | [53] 34.1 µM | [54] 20.2 µM | [25] 87.9 µM | [55] 31.2 µM | [56] 24.3 µM | [57] 47.5 µM | [26] 35.2 µM | [58] > 100 µM | [27] 39.2 µM | [59] 20 µM | [60] 48.9 µM | [61] 36 µM | [28] 24.8 µM | [62] 16.9 µM | [63] 35.3 µM | [64] 24.8 µM | [29] 39.8 µM | [30] 52.6 µM | [31] 34.1 µM | [32] 22.6 µM | [33] 50.6 µM | [34] 24 µM | [35] 22 µM | [36] 23.4 µM | [37] 45.3 µM | [38] 53.5 µM | [39] 46.2 µM | [40] 28.1 µM
30.5 µM: [9]

COc1cc(CCNC2=CC(=O)c3cccnc3C2=O)ccc1O
active: [4] 0.284 µM | [43] 0.83 µM | [44] 0.849 µM | [5] 1.1 µM | [7] 0.483 µM | [14] 0.957 µM | [16] 0.944 µM | [18] 0.809 µM | [19] 0.916 µM | [52] 0.167 µM | [23] 0.869 µM | [54] 0.955 µM | [56] 0.173 µM | [26] 0.766 µM | [59] 0.16 µM | [60] 0.736 µM | [28] 1.09 µM | [62] 0.385 µM | [39] 0.721 µM
inactive: [1] 1.92 µM | [3] 2.52 µM | [41] 2.76 µM | [42] 1.72 µM | [6] 1.87 µM | [45] 1.84 µM | [46] 1.37 µM | [47] 2.55 µM | [10] 1.37 µM | [48] 2.04 µM | [11] 1.95 µM | [12] 1.56 µM | [17] 1.32 µM | [49] 1.35 µM | [50] 8.51 µM | [51] 5.48 µM | [20] 1.49 µM | [21] 1.97 µM | [22] 1.61 µM | [53] 1.84 µM | [25] 1.73 µM | [55] 2.6 µM | [57] 2.07 µM | [58] 1.63 µM | [27] 3.08 µM | [61] 1.39 µM | [63] 1.32 µM | [64] 1.92 µM | [29] 1.59 µM | [30] 1.4 µM | [31] 3.64 µM | [32] 2.5 µM | [33] 1.44 µM | [34] 1.22 µM | [35] 4.09 µM | [36] 1.6 µM | [37] 2.26 µM | [38] 7.96 µM | [40] 1.31 µM
1.18 µM: [9]

Cc1ccc(C(N)=O)cc1/N=N/N(C)C
inactive: [65] > 100 µM | [3] > 100 µM | [4] > 100 µM | [8] > 100 µM | [10] > 100 µM | [48] > 100 µM | [11] > 100 µM | [12] > 100 µM | [13] > 100 µM | [14] > 100 µM | [15] > 100 µM | [16] > 100 µM | [17] > 100 µM | [18] > 100 µM | [49] > 100 µM | [51] > 100 µM | [19] > 100 µM | [20] > 100 µM | [21] > 100 µM | [22] > 100 µM | [23] > 100 µM | [24] > 100 µM | [25] > 100 µM | [57] > 100 µM | [26] > 100 µM | [27] > 100 µM | [61] > 100 µM | [28] > 100 µM | [62] > 100 µM | [63] > 100 µM | [64] > 100 µM | [30] > 100 µM | [33] > 100 µM | [34] > 100 µM | [36] > 100 µM | [37] > 100 µM | [38] > 100 µM | [39] > 100 µM | [40] > 100 µM
> 100 µM: [9]

From ChEMBL document CHEMBL1201862, “PubChem BioAssay data set” (2004)
